Assay results: patent US20020016443A1, “Antiproliferative factor” (priority 1996, published 2002)

System: APF activity on primary normal bladder epithelial cells
Test: Blocking of APF antiproliferative activity by recombinant growth factors (^3H-thymidine incorporation)
Assay type: cell-based, human
Conditions: co-incubation with low molecular weight IC urine fractions; HB-EGF 10, 30 and 100 ng/ml; EGF, IGF1 up to about 12 and 25 fold normal levels
Experimental: ^3H-Thymidine Incorporation. Primary normal adult human bladder epithelial cells (HBE) were grown from biopsies obtained at autopsy from patients who had no history of bladder disorder. HBE cells were plated at a density of 1×10^4 cells/well onto 96 well tissue culture plates and incubated at 37° C. overnight (resulting in approximately 60% confluence the following day). The medium was then changed to MEM containing only 1% glutamine and 1% antibiotic/ antimycotic solution, and the cells were incubated at 37° C. overnight. […] Cells were then trypsinized, and insoluble cell contents harvested and methanol-fixed onto glass fiber filter paper, as previously described^62; the amount of radioactivity incorporated was determined as counts per minute using a Beckman LS 3801 scintillation counter. […]
To determine whether the antiproliferative effect of the APF on bladder epithelial cells might be due to a decrease in HB-EGF production, primary normal bladder epithelial cells were simultaneously incubated with varying levels of recombinant HB-EGF, EGF, or IGF1 and low molecular weight urine fractions from IC patients. […] This effect was evident using a concentration of HB-EGF (10 ng/ml) in the range previously determined for normal controls (2-22 ng/ml, mean 6.33 ng/ml) 12 as well as higher concentrations (30 and 100 ng/ml). […]

Substance	inhibition of IC urine antiproliferative activity by recombinant growth factor
epidermal growth factor [EGF]	insufficient to completely inhibit APF activity
insulin-like growth factor 1 [IGF1]	insufficient to completely inhibit APF activity
